Data on 2 compounds can be found in patent US20110105576A1 (priority 2008, published 2011).

Where two headings read alike, the source gives them in different places.

Assay [1] relates to Fusarium graminearum (ear rot of maize). In kind it is cell-based. Particulars: solo, 48 hrs.
The test system is the same in assay [2]. In kind it is cell-based. Particulars: solo, 48 hrs. The source holds these as a separate data set.

Consider `CCCN(CCOc1c(Cl)cc(Cl)cc1Cl)C(=O)n1ccnc1` [A, prochloraz], for which the “Observed control in %” value in assay [1] (0.004 ppm (mg a.i./liter final medium)) is reported as 0%; in assay [1] (0.008 ppm), 3%; in assay [1] (0.016 ppm), 6%; in assay [1] (0.031 ppm) it was 11%; in assay [1] (0.063 ppm) it was 25%; in assay [1] (0.125 ppm), 86%. For the same compound, the “Observed control in %” value turned out to be 94% in assay [1] (0.25 ppm), 96% in assay [1] (0.5 ppm), 96% in assay [1] (1.0 ppm) and 96% in assay [1] (2.0 ppm).
Regarding `CC1(C)CCC(Cc2ccc(Cl)cc2)C1(O)Cn1cncn1` (stereo not drawn) [B, metconazole], the “Observed control in %” value in assay [2] (0.008 ppm) is on record as 3%; in assay [2] (0.25 ppm), 93%; in assay [2] (0.5 ppm), 95%; in assay [2] (2.0 ppm), 96%; in assay [1] (0.008 ppm) it was 3%; in assay [1] (0.25 ppm), 93%. The “Observed control in %” value was 95% in assay [1] (0.5 ppm) and 96% in assay [1] (2.0 ppm).
